From patent US20250059141A1, “TLR MODULATOR AND USE THEREOF” (DUALITY BIOLOGICS (SUZHOU) CO., LTD., priority 2021, published 2025)
pEC50: −log10 of the molar value. Where two headings read alike, the source gives them in different places.

How the values were obtained:
[1] = target: T1, hTLR8 (human Toll-like receptor 8) (Homo sapiens, UniProt Q9NR97); assay: HEK-Blue hTLR8 reporter assay (QUANTI-Blue, OD650); format: cell-based; conditions: HEK-Blue hTLR8 cells, 24 h, read-out: Reporter assay TLR8 EC50
T1 construct: host or cells: HEK-Blue hTLR8 (HEK293-derived reporter cells)
T1 sequence (Q9NR97 27-1041): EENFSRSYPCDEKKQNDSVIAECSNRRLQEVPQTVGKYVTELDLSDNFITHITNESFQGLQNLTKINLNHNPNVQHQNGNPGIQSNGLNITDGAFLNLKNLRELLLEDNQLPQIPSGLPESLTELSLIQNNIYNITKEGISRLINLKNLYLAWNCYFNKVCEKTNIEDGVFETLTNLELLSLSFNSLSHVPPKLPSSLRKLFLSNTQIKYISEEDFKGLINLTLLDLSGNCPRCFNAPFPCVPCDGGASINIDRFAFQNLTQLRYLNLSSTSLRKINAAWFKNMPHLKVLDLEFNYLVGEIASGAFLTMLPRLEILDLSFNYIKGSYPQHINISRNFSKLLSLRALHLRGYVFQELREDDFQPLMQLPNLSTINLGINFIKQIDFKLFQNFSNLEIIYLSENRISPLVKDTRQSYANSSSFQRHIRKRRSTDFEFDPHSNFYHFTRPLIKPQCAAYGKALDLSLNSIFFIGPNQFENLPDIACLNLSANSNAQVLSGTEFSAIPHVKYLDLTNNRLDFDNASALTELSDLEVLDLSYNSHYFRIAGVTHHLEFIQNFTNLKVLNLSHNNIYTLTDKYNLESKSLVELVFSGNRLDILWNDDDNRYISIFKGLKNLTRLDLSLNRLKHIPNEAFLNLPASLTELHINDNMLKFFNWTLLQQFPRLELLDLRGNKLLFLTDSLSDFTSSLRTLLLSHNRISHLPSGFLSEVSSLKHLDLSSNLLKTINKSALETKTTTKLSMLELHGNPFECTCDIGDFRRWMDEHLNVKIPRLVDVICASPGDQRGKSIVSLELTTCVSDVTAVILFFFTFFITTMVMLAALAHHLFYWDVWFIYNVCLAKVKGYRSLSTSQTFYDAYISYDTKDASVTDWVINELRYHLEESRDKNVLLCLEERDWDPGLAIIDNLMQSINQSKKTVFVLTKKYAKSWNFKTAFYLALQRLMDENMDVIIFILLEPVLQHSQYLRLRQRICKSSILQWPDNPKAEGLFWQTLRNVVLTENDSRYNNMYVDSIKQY
Protocol: (§1) In this example, the agonistic activity of the compounds of the present application on hTLR7 (human Toll-like receptor 7) and hTLR8 (human Toll-like receptor 8) was assessed; the induction activity of the compounds on human PBMCs for TNF-α and IFN-α production was assessed in human PBMCs (human peripheral blood mononuclear cells).
(§2) All compounds were formulated in DMSO into 30 mM stock solutions and preserved at 4° C. The reference compound ([…], Cat. No. tlrl-r848-5) was purchased from InvivoGen and formulated into a 5 mg/mL stock solution in DMSO and preserved in a freezer at −20° C. HEK-Blue hTLR7 and HEK-Blue hTLR8 cell lines were purchased from InvivoGen, and human PBMCs were purchased from Shanghai Saily Biotechnology Co., Ltd. (Cat. No. XFB—HP100B).
(§3) The major instruments used in this study were multifunctional microplate reader Flexstation III (Molecular Device), Envision (Perkin Elmer), M2e (Molecular Device), and Echo555 (Labcyte). 2.1 Agonistic activity of compounds on hTLR7 (human Toll-like receptor 7) and hTLR8 (human Toll-like receptor 8)
(§4) Compound dilution: The compounds of the present application are diluted in DMSO, for example, to about 15 mM. The reference compound was added to the plates in sequence after dilution. The compounds were serially 3-fold diluted to 10 concentrations and added to 96-well plates in duplicate.
(§5) For the negative control wells, DMSO was added at 0.2 μL/well, and the reference compound was added to the positive control wells. The final concentration of DMSO was 0.2%.
(§6) Cell plating: When an 80% confluence of HEK Blue hTLR7&8 cells in the culture flask was observed under a microscope, the culture medium was discarded, 10 mL of detection medium was added, and the cells were separated by pipetting. The cells were counted on a cytometer and diluted to 500,000 cells/mL. The cells were plated at 100 μL/50,000 cells/well in the 96-well plates containing the compounds. The compounds and cells were co-incubated at 37° C. in a 5% CO2 incubator for 24 hours.
(§7) Compound activity detection: 20 μL of cell supernatant was taken from each well and added to a plate containing QUANTI-Blue™ reagent at 180 μL/well. The plate was incubated at 37° C. for 1 hour, and the absorbance at 650 nm (OD650) was measured on the multifunctional microplate reader Flexstation III.
(§8) Compound activity data analysis: The OD650 values were analyzed by GraphPad Prism software and fitted to give dose-response curves of the compounds. The EC50 values of compounds were calculated.

[2] = target: T2, hTLR7 (human Toll-like receptor 7) (Homo sapiens, UniProt Q9NYK1); assay: HEK-Blue hTLR7 reporter assay (QUANTI-Blue, OD650); format: cell-based; conditions: HEK-Blue hTLR7 cells, 24 h, read-out: Reporter assay TLR7 EC50
T2 construct: host or cells: HEK-Blue hTLR7 (HEK293-derived reporter cells)
T2 sequence (Q9NYK1 27-1049): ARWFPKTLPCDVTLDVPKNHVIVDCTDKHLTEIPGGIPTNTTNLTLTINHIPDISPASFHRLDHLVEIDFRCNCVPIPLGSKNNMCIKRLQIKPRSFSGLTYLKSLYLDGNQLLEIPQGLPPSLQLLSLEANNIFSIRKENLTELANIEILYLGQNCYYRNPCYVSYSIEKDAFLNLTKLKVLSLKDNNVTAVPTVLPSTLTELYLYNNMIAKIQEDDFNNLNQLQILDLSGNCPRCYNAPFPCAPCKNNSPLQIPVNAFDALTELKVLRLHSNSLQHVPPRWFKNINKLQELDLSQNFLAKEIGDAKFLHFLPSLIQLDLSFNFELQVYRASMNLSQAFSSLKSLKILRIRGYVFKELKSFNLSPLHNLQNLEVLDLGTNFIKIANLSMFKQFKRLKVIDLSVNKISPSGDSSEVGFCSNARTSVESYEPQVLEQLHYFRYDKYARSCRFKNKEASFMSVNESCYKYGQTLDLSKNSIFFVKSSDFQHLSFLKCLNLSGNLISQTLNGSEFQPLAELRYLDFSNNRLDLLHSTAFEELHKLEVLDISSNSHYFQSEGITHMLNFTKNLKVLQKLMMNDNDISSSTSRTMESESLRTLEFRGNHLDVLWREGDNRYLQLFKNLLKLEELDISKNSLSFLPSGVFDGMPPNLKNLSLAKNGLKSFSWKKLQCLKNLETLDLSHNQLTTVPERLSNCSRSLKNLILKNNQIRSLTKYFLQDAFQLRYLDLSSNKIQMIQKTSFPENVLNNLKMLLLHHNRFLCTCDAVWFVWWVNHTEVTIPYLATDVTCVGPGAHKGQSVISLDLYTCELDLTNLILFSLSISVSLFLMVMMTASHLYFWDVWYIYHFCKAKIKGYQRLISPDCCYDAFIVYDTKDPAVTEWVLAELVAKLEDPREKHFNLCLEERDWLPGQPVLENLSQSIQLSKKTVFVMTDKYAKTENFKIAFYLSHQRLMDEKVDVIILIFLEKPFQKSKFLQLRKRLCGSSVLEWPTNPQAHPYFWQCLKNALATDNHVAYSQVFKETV
Protocol: as §1, §2, §3, §4, §5, §6, §7, §8

Compound	pEC50 ([1]; class symbols)	pEC50 ([2]; class symbols)	pEC50 [1]	pEC50 [2]
CCCN(OCc1ccc(N)cc1)C(=O)C1=Cc2ccc(C(=O)N3CC[C@H](O)C3)cc2N=C(N)C1 [Compound 46B]	7.00 to 8.00	< 6.00	–	–
CCCN(OCc1ccc(N)cc1)C(=O)C1=Cc2ccc(C(=O)N3CC[C@@H](O)C3)cc2N=C(N)C1 [Compound 46A]	7.00 to 8.00	< 6.00	–	–
CCCN(OCc1ccc(N)cc1)C(=O)C1=Cc2ccc(C(=O)N3CCOCC3)cc2N=C(N)C1 [Compound 39]	–	–	8.55	5.45
